Experimental data as given in PubChem BioAssay (NCI).
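96-well plates; 48 h exposure; 5 concentrations. Endpoints by linear interpolation between flanking doses. Not reached: highest tested concentration assigned. At the TGI there is no net growth.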

Tests used:
Experiment in all cases: NCI anticancer screen, dose series, 48 h
786-0 renal = tested on: 786-0 renal
A498 renal = tested on: A498 renal
A549 NSCLC = tested on: A549 NSCLC
ACHN renal = tested on: ACHN renal
BT-549 breast = tested on: BT-549 breast
CAKI-1 renal = tested on: CAKI-1 renal
CCRF-CEM leukemia = tested on: CCRF-CEM leukemia
COLO 205 colon = tested on: COLO 205 colon
DU-145 prostate = tested on: DU-145 prostate
EKVX NSCLC = tested on: EKVX NSCLC
HCC-2998 colon = tested on: HCC-2998 colon
HCT-116 colon = tested on: HCT-116 colon
HCT-15 colon = tested on: HCT-15 colon
HOP-62 NSCLC = tested on: HOP-62 NSCLC
IGROV1 ovarian = tested on: IGROV1 ovarian
K-562 leukemia = tested on: K-562 leukemia
KM12 colon = tested on: KM12 colon
LOX IMVI melanoma = tested on: LOX IMVI melanoma
M14 melanoma = tested on: M14 melanoma
MALME-3M melanoma = tested on: MALME-3M melanoma
MCF7 breast = tested on: MCF7 breast
MDA-MB-231 breast = tested on: MDA-MB-231 breast
MDA-MB-435 = tested on: MDA-MB-435
MDA-N = tested on: MDA-N
MOLT-4 leukemia = tested on: MOLT-4 leukemia
NCI-H226 lung = tested on: NCI-H226 lung
NCI-H23 lung = tested on: NCI-H23 lung
NCI-H460 lung = tested on: NCI-H460 lung
NCI-H522 lung = tested on: NCI-H522 lung
NCI/ADR-RES ovarian = tested on: NCI/ADR-RES ovarian
OVCAR-4 ovarian = tested on: OVCAR-4 ovarian
OVCAR-5 ovarian = tested on: OVCAR-5 ovarian
OVCAR-8 ovarian = tested on: OVCAR-8 ovarian
PC-3 prostate = tested on: PC-3 prostate
RPMI-8226 leukemia = tested on: RPMI-8226 leukemia
RXF 393 renal = tested on: RXF 393 renal
SF-268 CNS = tested on: SF-268 CNS
SF-295 CNS = tested on: SF-295 CNS
SF-539 CNS = tested on: SF-539 CNS
SK-MEL-2 melanoma = tested on: SK-MEL-2 melanoma
SK-MEL-28 melanoma = tested on: SK-MEL-28 melanoma
SK-MEL-5 melanoma = tested on: SK-MEL-5 melanoma
SK-OV-3 ovarian = tested on: SK-OV-3 ovarian
SN12C renal = tested on: SN12C renal
SNB-19 CNS = tested on: SNB-19 CNS
SNB-75 CNS = tested on: SNB-75 CNS
SR leukemia = tested on: SR leukemia
SW-620 colon = tested on: SW-620 colon
T-47D breast = tested on: T-47D breast
TK-10 renal = tested on: TK-10 renal
U251 CNS = tested on: U251 CNS
UACC-257 melanoma = tested on: UACC-257 melanoma
UACC-62 melanoma = tested on: UACC-62 melanoma
UO-31 renal = tested on: UO-31 renal

Measured: TGI

COc1ccc2c(c1)CC[C@@H]1[C@@H]2CC[C@]2(C)C(=O)/C(=C/c3ccc(C#N)cc3)C[C@@H]12
> 100 µM: 786-0 renal | A498 renal | A549 NSCLC | ACHN renal | BT-549 breast | CAKI-1 renal | CCRF-CEM leukemia | COLO 205 colon | DU-145 prostate | EKVX NSCLC | HCC-2998 colon | HCT-116 colon | HCT-15 colon | HOP-62 NSCLC | IGROV1 ovarian | K-562 leukemia | KM12 colon | LOX IMVI melanoma | M14 melanoma | MALME-3M melanoma | MCF7 breast | MDA-MB-231 breast | MDA-MB-435 | MDA-N | MOLT-4 leukemia | NCI-H226 lung | NCI-H23 lung | NCI-H460 lung | NCI-H522 lung | NCI/ADR-RES ovarian | OVCAR-4 ovarian | OVCAR-5 ovarian | OVCAR-8 ovarian | PC-3 prostate | RPMI-8226 leukemia | RXF 393 renal | SF-268 CNS | SF-295 CNS | SF-539 CNS | SK-MEL-2 melanoma | SK-MEL-28 melanoma | SK-MEL-5 melanoma | SK-OV-3 ovarian | SN12C renal | SNB-19 CNS | SNB-75 CNS | SR leukemia | SW-620 colon | T-47D breast | TK-10 renal | U251 CNS | UACC-257 melanoma | UACC-62 melanoma | UO-31 renal
